# In patent US9734282B2, “Biological dataset profiling of cardiovascular disease and cardiovascular inflammation” (DISCOVERX CORPORATION, priority 2005, dated 2017):
# Tests used:
# [1] = tested on: HUVEC and HUVEC + PBMC systems; test: 4 system BioMAP activity profile (3C, 4H, LPS, SAg); assay type: cell-based, human; conditions: data not shown
# Method: (§1) Human umbilical vein endothelial cells (HUVEC) were cultured according to standard methods, and plated into microtiter plates. Peripheral blood mononuclear cells (PBMC) were prepared from buffy coats from normal human donors according to standard methods. Experiments were performed by culturing HUVEC in microtiter plates in the presence of cytokines (IL-1b, 1 ng/ml; TNF-a, 5 ng/ml; and IFN-g, 100 ng/ml, or IL-4, 5 ng/ml and histamine, […]), activators (SAg, 20 ng/ml or LPS, 0.2 ng/ml), and/or PBMC (7.5×10^4 cells/well) for 24 h. Compounds were tested at the indicated concentrations. Compounds were prepared in the solvent as directed, added 1 hr before stimulation of the cells, and were present during the whole 24 hr stimulation period.
# (§2) The levels of readout parameters (proteins) were measured by cell-based ELISA. Briefly, microtiter plates are treated, blocked, and then incubated with primary antibodies or isotype control antibodies (0.01-0.5 mg/ml) for 1 hr. After washing, plates were incubated with a peroxidase-conjugated anti-mouse IgG secondary antibody or a biotin-conjugated anti-mouse IgG antibody for 1 hr followed by streptavidin-HRP for 30 min. Plates were washed and developed with TMB substrate and the absorbance (OD) was read at 450 nm (subtracting the background absorbance at 650 nm). Other readout parameters include: total protein levels (SRB assay), measuring the viability of peripheral blood mononuclear cells (incorporation of propidium iodide); and microscopic visualization. SRB was performed by staining cells with 0.1% sulforhodamine B after fixation with 10% TCA, and reading wells at 560 nm. PBMC viability was assessed by adding propidium iodide (10 mg/ml) to PBMC that had been cultured for 24 hours in the presence of activators and measuring the percentage of cells that incorporated dye by flow cytometry after 10 minutes.
# For data analysis, mean OD values (or other measurements) for each parameter were calculated from triplicate samples per experiment. […] 99% prediction envelopes (grey shading in Figures) were calculated for historical controls.
# [2] = tested on: Peripheral Blood Mononuclear Cells + Endothelial Cells; test: BioMAP SAg system (PBMC + endothelial cells, TCR), cell-based ELISA; set-up: species or system human; conditions: for CD69 level / E-selectin level / IL-8 level: protein level drug-treated versus buffer control, 24 h
# Method: as §1, §2
# (§3) For data analysis, mean OD values (or other measurements) for each parameter were calculated from triplicate samples per experiment. The mean value obtained for each parameter in a treated sample was then divided by the mean value from an appropriate control to generate a ratio. All ratios were then log 10 transformed. An average or “trusted” profile was created by averaging 2 repeats of the experiment for each compound and concentration combination. 99% prediction envelopes (grey shading in Figures) were calculated for historical controls.
# [3] = tested on: Primary Human Endothelial Cells (HUVEC); test: BioMAP 3C system (endothelial cells + IL-1β + TNF-α + IFN-γ), cell-based ELISA; conditions: for uPAR level: protein level drug-treated versus buffer control, 24 h
# Method: Human umbilical vein endothelial cells (HUVEC) were cultured according to standard methods, and plated into microtiter plates. Peripheral blood mononuclear cells (PBMC) were prepared from buffy coats from normal human donors according to standard methods. Experiments were performed by culturing HUVEC in microtiter plates in the presence of cytokines (IL-1b, 1 ng/ml; TNF-a, 5 ng/ml; and IFN-g, 100 ng/ml, or IL-4, 5 ng/ml and histamine, […]), activators (SAg, 20 ng/ml or LPS, 0.2 ng/ml), and/or PBMC (7.5×10^4 cells/well) for 24 h. Compounds were tested at the indicated concentrations. Compounds were prepared in the solvent as directed, added 1 hr before stimulation of the cells, and were present during the whole 24 hr stimulation period. The levels of readout parameters (proteins) were measured by cell-based ELISA. Briefly, microtiter plates are treated, blocked, and then incubated with primary antibodies or isotype control antibodies (0.01-0.5 mg/ml) for 1 hr. After washing, plates were incubated with a peroxidase-conjugated anti-mouse IgG secondary antibody or a biotin-conjugated anti-mouse IgG antibody for 1 hr followed by streptavidin-HRP for 30 min. Plates were washed and developed with TMB substrate and the absorbance (OD) was read at 450 nm (subtracting the background absorbance at 650 nm). Other readout parameters include: total protein levels (SRB assay), measuring the viability of peripheral blood mononuclear cells (incorporation of propidium iodide); and microscopic visualization. SRB was performed by staining cells with 0.1% sulforhodamine B after fixation with 10% TCA, and reading wells at 560 nm. PBMC viability was assessed by adding propidium iodide (10 mg/ml) to PBMC that had been cultured for 24 hours in the presence of activators and measuring the percentage of cells that incorporated dye by flow cytometry after 10 minutes. For data analysis, mean OD values (or other measurements) for each parameter were calculated from triplicate samples per experiment. […] 99% prediction envelopes (grey shading in Figures) were calculated for historical controls.
# [4] = tested on: Primary Human Endothelial Cells (HUVEC); test: BioMAP 4H system (endothelial cells + IL-4 + histamine), cell-based ELISA; conditions: protein level drug-treated versus buffer control, 24 h
# Method: as §1, §2, §3
# [5] = tested on: Peripheral Blood Mononuclear Cells + Endothelial Cells; test: BioMAP LPS system (PBMC + endothelial cells, TLR4), cell-based ELISA; set-up: species or system human
# Method: Human umbilical vein endothelial cells (HUVEC) were cultured according to standard methods, and plated into microtiter plates. Peripheral blood mononuclear cells (PBMC) were prepared from buffy coats from normal human donors according to standard methods. Experiments were performed by culturing HUVEC in microtiter plates in the presence of cytokines (IL-1b, 1 ng/ml; TNF-a, 5 ng/ml; and IFN-g, 100 ng/ml, or IL-4, 5 ng/ml and histamine, […]), activators (SAg, 20 ng/ml or LPS, 0.2 ng/ml), and/or PBMC (7.5×10^4 cells/well) for 24 h. Compounds were tested at the indicated concentrations. Compounds were prepared in the solvent as directed, added 1 hr before stimulation of the cells, and were present during the whole 24 hr stimulation period. The levels of readout parameters (proteins) were measured by cell-based ELISA. Briefly, microtiter plates are treated, blocked, and then incubated with primary antibodies or isotype control antibodies (0.01-0.5 mg/ml) for 1 hr. After washing, plates were incubated with a peroxidase-conjugated anti-mouse IgG secondary antibody or a biotin-conjugated anti-mouse IgG antibody for 1 hr followed by streptavidin-HRP for 30 min. Plates were washed and developed with TMB substrate and the absorbance (OD) was read at 450 nm (subtracting the background absorbance at 650 nm). Other readout parameters include: total protein levels (SRB assay), measuring the viability of peripheral blood mononuclear cells (incorporation of propidium iodide); and microscopic visualization. SRB was performed by staining cells with 0.1% sulforhodamine B after fixation with 10% TCA, and reading wells at 560 nm. PBMC viability was assessed by adding propidium iodide (10 mg/ml) to PBMC that had been cultured for 24 hours in the presence of activators and measuring the percentage of cells that incorporated dye by flow cytometry after 10 minutes. For data analysis, mean OD values (or other measurements) for each parameter were calculated from triplicate samples per experiment. The mean value obtained for each parameter in a treated sample was then divided by the mean value from an appropriate control to generate a ratio. All ratios were then log 10 transformed. An average or “trusted” profile was created by averaging 2 repeats of the experiment for each compound and concentration combination. 99% prediction envelopes (grey shading in Figures) were calculated for historical controls.
# Macrophages + HUVEC = test: BioMAP Mphg system (macrophages + endothelial cells + Zymosan); assay type: cell-based, human
# Method: Macrophages, are generated from human peripheral blood mononuclear cells. Human peripheral blood mononuclear cells are isolated from blood by Ficoll-hypaque density gradient centrifugation as described (Ponath, JEM 183:2437, 1996). Monocytes are then isolated by negative selection using the Monocyte Isolation Kit II (Miltenyi Biotec, Germany) MACS beads according to the manufacturer's instructions. Alternatively, 10×10^6 peripheral blood mononuclear cells/ml are cultured in RPMI containing 10% fetal bovine serum for 3 hours and non-adherent lymphocytes are removed by gentle washing. The following are then applied for 7 to 8 days: MCSF (50 ng/ml) alone, or MCSF+one of the following cytokines, IL-4 (20 ng/ml), IL-6 (20 ng/ml), IFN-gamma (10 ng/ml), or GM-CSF (10 ng/ml)+IL-4 (20 ng/ml). To generate foam cells, the culture media is replaced with media containing 40% autologous serum or 40% Human AB Serum male (Cambrex Bioproducts) in RPMI+MCSF 50 ng/ml for an additional 4 to 5 days. Cells are harvested and resuspended to 10^6 cells/ml and added to confluent endothelial cells. Primary human umbilical vein endothelial cells (HUVEC) are used. Other cells that may replace HUVEC in the screen include primary microvascular endothelial cells, aortic or arteriolar endothelial cells. 7.5×10^4 cells/ml are cultured to confluence in EGM-2 (Clonetics). […]
# [6] = tested on: Primary human umbilical artery smooth muscle cells (UASMC); test: BioMAP SM3C system (smooth muscle cells + IL-1 + TNF-a + IFNg); assay type: cell-based
# Method: Primary human umbilical artery smooth muscle cells (UASMC) are used. Other cells that may replace UASMC in the screen include primary aortic, bronchial, coronary artery or pulmonary artery smooth muscle cells. Other muscle cells of interest include skeletal muscle cells and cardiomyocytes. Passage 5-7 cells are used for the screen. 4×10^4 cells/ml are cultured to 100% confluence on CellBind plates (Costar) in SmGM-2 (Clonetics) containing 5% FBS. In some cases, SmGM-2 may be removed 24 hours before screen, and replaced with serum-free SmBM basal media (Clonetics) supplemented with insulin. The following are then applied for 24 hours: Factors include a combination of IL-4 (5 ng/ml), and histamine (HIS) (10 μM) or a combination of IL-1 (1 ng/ml), TNF-a (5 ng/ml) and IFNg (20 ng/ml) (SM3C) and/or thrombin (10 units/ml) for 6 and/or 24 hours. Standard concentrations of agents are employed as described in the literature. Other factors of interest include: IL-6, LPS, endothelin-1 and angiotensin II. Based on the parameters altered by the indicated factors, BioMAPs are generated for the parameters VCAM, HLA-DR, IL-8, MCP-1, Thrombomodulin, tissue factor, LDL-receptor and uPAR. […]
# [7] = tested on: heart transplant patients; conditions: cited from earlier work
# [8] = protein level drug-treated versus buffer control, 24 h
smiles,measurement,setting,value
COCc1c(C(C)C)nc(C(C)C)c(/C=C/[C@@H](O)C[C@@H](O)CC(=O)O)c1-c1ccc(F)cc1 [cerevistatin],BioMAP profile compared with the lovastatin profile,[1],induce the same BioMAP profile
S=C([S-])OC1CC2CC1C1CCCC21.[K+] (stereo not drawn) [D609],CD69 level,[2],downregulation
same,E-selectin level,[2],upregulation
same,IL-8 level,[2],upregulation
CC[C@H](C)C(=O)O[C@H]1CCC=C2C=C[C@H](C)[C@H](CC[C@@H]3C[C@@H](O)CC(=O)O3)[C@H]21 [mevastatin],BioMAP profile compared with the lovastatin profile,[1],induce the same BioMAP profile
CC[C@H](C)C(=O)O[C@H]1C[C@@H](C)C=C2C=C[C@H](C)[C@H](CC[C@@H]3C[C@@H](O)CC(=O)O3)[C@H]21 [lovastatin],uPAR level,[3],significant decreases
same,Eotaxin-3 level,[4],increases
same,MCP-1 level,[4],significant decreases
same,IL-1alpha level,[5]; [8],significant decreases
same,M-CSF level,[5]; [8],increases
same,tissue factor level,[5]; [8],increases
CCCCCCCCCCCCCCCCCCOCC(COP(=O)([O-])OCC[N+](C)(C)C)OC (stereo not drawn) [ET-18-OCH3],CD69 level,[2],downregulation
same,E-selectin level,[2],upregulation
same,IL-8 level,[2],upregulation
CC(C)c1c(C(=O)Nc2ccccc2)c(-c2ccccc2)c(-c2ccc(F)cc2)n1CC[C@@H](O)C[C@@H](O)CC(=O)O [atorvastatin],uPAR level,[3],significant decreases
same,Eotaxin-3 level,[4],increases
same,MCP-1 level,[4],significant decreases
same,BioMAP profile compared with the lovastatin profile,[1],induce the same BioMAP profile
COc1c(C)c2c(c(O)c1C/C=C(\C)CCC(=O)O)C(=O)OC2 [mycophenolic acid],MCP-1 level,[3],inhibition
same,MCP-1 level,[5],inhibition
same,MCP-1 level,[2],inhibition
same,MCP-1 level,Macrophages + HUVEC,inhibition
same,MCP-1 level,[6],inhibition
same,long-term benefit against post-transplant vasculopathy,[7],protecting against post-transplant vasculopathy
